# Measured values taken from PubChem BioAssay AID330 (DTP/NCI, 2004).
# Values joined by “and” are separate entries in the source; they are usually repeats but may differ in a detail not shown here. Identical values can stand only once. Inconclusive results and toxic doses are left out.
# System: P388 leukemia ip, CD2F1 mice, survival T/C
# Test: NCI In Vivo Anticancer Drug Screen. Data for tumor model P388 Leukemia (intraperitoneal) in CD2F1 (CDF1) mice
# Details: endpoint: median survival time, higher = longer survival
# How it was run: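 Mice carrying the transplanted tumor received test compound or vehicle. Survival was recorded in each group, and the value is the treated-group measurement divided by that of the vehicle-treated control group.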
# [1] = dose: 60.0 mg/kg/injection, schedule: Q01DX005 (ip), vehicle: saline with Tween-80
# [2] = dose: 120.0 mg/kg/injection, schedule: Q01DX005 (ip), vehicle: saline with Tween-80
# [3] = dose: 240.0 mg/kg/injection, schedule: Q01DX005 (ip), vehicle: saline with Tween-80
# [4] = dose: 100.0 mg/kg/injection, schedule: Q01DX009 (ip), vehicle: saline
# [5] = dose: 200.0 mg/kg/injection, schedule: Q01DX009 (ip), vehicle: saline
# [6] = dose: 12.5 mg/kg/injection, schedule: Q01DX009 (ip), vehicle: other
# [7] = dose: 25.0 mg/kg/injection, schedule: Q01DX009 (ip), vehicle: other
# [8] = dose: 60.0 mg/kg/injection, schedule: Q01DX005 (ip), vehicle: Klucel (hydroxypropylcellulose) (HPC)
# [9] = dose: 120.0 mg/kg/injection, schedule: Q01DX005 (ip), vehicle: Klucel (hydroxypropylcellulose) (HPC)
# [10] = dose: 25.0 mg/kg/injection, schedule: Q01DX009 (ip), vehicle: Klucel (hydroxypropylcellulose) (HPC)
# [11] = dose: 50.0 mg/kg/injection, schedule: Q01DX009 (ip), vehicle: Klucel (hydroxypropylcellulose) (HPC)
# [12] = dose: 50.0 mg/kg/injection, schedule: Q01DX005 (ip), vehicle: saline with Tween-80
# [13] = dose: 100.0 mg/kg/injection, schedule: Q01DX005 (ip), vehicle: saline with Tween-80
# [14] = dose: 200.0 mg/kg/injection, schedule: Q01DX005 (ip), vehicle: saline with Tween-80
# [15] = dose: 50.0 mg/kg/injection, schedule: Q01DX005 (ip), vehicle: Klucel (hydroxypropylcellulose) (HPC)
# [16] = dose: 100.0 mg/kg/injection, schedule: Q01DX005 (ip), vehicle: Klucel (hydroxypropylcellulose) (HPC)
# [17] = dose: 200.0 mg/kg/injection, schedule: Q01DX005 (ip), vehicle: Klucel (hydroxypropylcellulose) (HPC)
# [18] = dose: 100.0 mg/kg/injection, schedule: Q04DX003 (ip), vehicle: saline with Tween-80
# [19] = dose: 200.0 mg/kg/injection, schedule: Q04DX003 (ip), vehicle: saline with Tween-80
# [20] = dose: 12.5 mg/kg/injection, schedule: Q01DX009 (ip), vehicle: saline with Tween-80
# [21] = dose: 25.0 mg/kg/injection, schedule: Q01DX009 (ip), vehicle: saline with Tween-80
compound,measurement,setting,value
Cc1cc2[nH]c3c(C#N)c(O)c(C)c(=O)n3c2cc1C,T/C,[1],100 % of control
same,T/C,[2],100 % of control
same,T/C,[3],100 % of control
C=CC(=O)NCCCCCC(=O)O,T/C,"dose: 50.0 mg/kg/injection, schedule: Q01DX009 (ip), vehicle: saline",103 % of control
same,T/C,[4],98 % of control
same,T/C,[5],103 % of control
Cc1ccc(S(=O)(=O)N/N=C\c2cccnc2)cc1,T/C,[6],105 % of control
same,T/C,[7],110 % of control
same,T/C,"dose: 50.0 mg/kg/injection, schedule: Q01DX009 (ip), vehicle: other",105 % of control
same,T/C,"dose: 100.0 mg/kg/injection, schedule: Q01DX009 (ip), vehicle: other",109 % of control and 95 % of control
same,T/C,"dose: 200.0 mg/kg/injection, schedule: Q01DX009 (ip), vehicle: other",99 % of control and 100 % of control
same,T/C,"dose: 400.0 mg/kg/injection, schedule: Q01DX009 (ip), vehicle: other",101 % of control
CCOc1ccn(CC(=O)N2CCOCC2)c(=O)n1,T/C,"dose: 100.0 mg/kg/injection, schedule: Q04DX003 (ip), vehicle: water",90 % of control
same,T/C,"dose: 200.0 mg/kg/injection, schedule: Q04DX003 (ip), vehicle: water",100 % of control
same,T/C,"dose: 400.0 mg/kg/injection, schedule: Q04DX003 (ip), vehicle: water",90 % of control
C=C(Cl)CSC(=S)N(CC)CC,T/C,"dose: 37.5 mg/kg/injection, schedule: Q01DX009 (ip), vehicle: saline sonified",100 % of control
same,T/C,"dose: 75.0 mg/kg/injection, schedule: Q01DX009 (ip), vehicle: saline sonified",104 % of control
same,T/C,"dose: 150.0 mg/kg/injection, schedule: Q01DX009 (ip), vehicle: saline sonified",109 % of control
Oc1cc2c3c(c1)c1cc4c(cc1c[n+]3CC2)OCO4,T/C,"dose: 6.25 mg/kg/injection, schedule: Q01DX009 (ip), vehicle: other",151 % of control
same,T/C,"dose: 10.0 mg/kg/injection, schedule: Q01DX005 (ip), vehicle: acid diluted with saline",119 % of control
same,T/C,[6],155 % of control
same,T/C,"dose: 20.0 mg/kg/injection, schedule: Q01DX005 (ip), vehicle: acid diluted with saline",119 % of control
same,T/C,[7],164 % of control
CCCn1c(C)nc2c(N)cc(C(F)(F)F)cc21,T/C,"dose: 100.0 mg/kg/injection, schedule: Q04DX002 (ip), vehicle: saline with Tween-80",105 % of control
same,T/C,"dose: 200.0 mg/kg/injection, schedule: Q04DX002 (ip), vehicle: saline with Tween-80",100 % of control
same,T/C,"dose: 400.0 mg/kg/injection, schedule: Q04DX002 (ip), vehicle: saline with Tween-80",95 % of control
O=C(CCCC(=O)Nc1ccc2[nH]c3ccccc3c(=O)c2c1)Nc1ccc2[nH]c3ccccc3c(=O)c2c1,T/C,[8],92 % of control
same,T/C,[9],94 % of control
CC(C)=CCc1c2c(c3occ(-c4ccc(O)cc4)c(=O)c3c1O)C=CC(C)(C)O2,T/C,[10],90 % of control
same,T/C,[11],90 % of control
same,T/C,"dose: 100.0 mg/kg/injection, schedule: Q01DX009 (ip), vehicle: Klucel (hydroxypropylcellulose) (HPC)",88 % of control
same,T/C,"dose: 200.0 mg/kg/injection, schedule: Q01DX009 (ip), vehicle: Klucel (hydroxypropylcellulose) (HPC)",88 % of control
C(=NCCN=Cc1ccccc1)c1ccccc1,T/C,"dose: 200.0 mg/kg/injection, schedule: Q01DX009 (ip), vehicle: saline with Tween-80",95 % of control
same,T/C,"dose: 400.0 mg/kg/injection, schedule: Q01DX009 (ip), vehicle: saline with Tween-80",87 % of control
CCN(CC)CCCN1CC2CC=CCC2C1 (centres undefined),T/C,"dose: 50.0 mg/kg/injection, schedule: Q01DX005 (ip), vehicle: saline",98 % of control
same,T/C,"dose: 100.0 mg/kg/injection, schedule: Q01DX005 (ip), vehicle: saline",100 % of control
same,T/C,"dose: 200.0 mg/kg/injection, schedule: Q01DX005 (ip), vehicle: saline",105 % of control
c1ccc2c(c1)Sc1cnccc1N2CC1CO1 (centres undefined),T/C,[4],109 % of control
same,T/C,[5],100 % of control
same,T/C,"dose: 400.0 mg/kg/injection, schedule: Q01DX009 (ip), vehicle: saline",100 % of control
COc1ccc(NC(=O)CCC(=O)CC(=O)c2ccncc2)cc1,T/C,[1],101 % of control
same,T/C,[2],103 % of control
same,T/C,[3],93 % of control
CC(=O)Oc1ccccc1C(=O)OC1CC2CCC1(C)C2(C)C (centres undefined),T/C,[12],92 % of control
same,T/C,[13],97 % of control
same,T/C,[14],98 % of control
CC1(C)CCC2(C)N(c3ccccc3)C(=O)ON12 (centres undefined),T/C,[12],102 % of control
same,T/C,[13],100 % of control
same,T/C,[14],99 % of control
CCOc1ccc(C(C)c2cc3c(cc2OC)OCO3)c(C)c1 (centres undefined),T/C,[15],103 % of control
same,T/C,[16],106 % of control
same,T/C,[17],106 % of control
O=C(NCc1cccnc1)Nc1cccc2c(NC(=O)NCc3cccnc3)cccc12,T/C,[1],91 % of control
same,T/C,[2],86 % of control
same,T/C,[3],86 % of control
[O-][n+]1nn(CC(O)CCl)c2ccccc21 (centres undefined),T/C,[12],102 % of control
same,T/C,[13],102 % of control
same,T/C,[18],103 % of control
same,T/C,[14],100 % of control
same,T/C,[19],98 % of control
same,T/C,"dose: 400.0 mg/kg/injection, schedule: Q04DX003 (ip), vehicle: saline with Tween-80",93 % of control
CN1CCC(C(c2ccccc2)c2ccccc2)C1 (centres undefined),T/C,"dose: 12.5 mg/kg/injection, schedule: Q01DX009 (ip), vehicle: Klucel (hydroxypropylcellulose) (HPC)",100 % of control
same,T/C,[10],102 % of control
same,T/C,[11],105 % of control
CCCCC(=O)CCCCCCCCC(=O)OCC,T/C,"dose: 100.0 mg/kg/injection, schedule: Q04DX003 (ip), vehicle: Klucel (hydroxypropylcellulose) (HPC)",102 % of control
same,T/C,"dose: 200.0 mg/kg/injection, schedule: Q04DX003 (ip), vehicle: Klucel (hydroxypropylcellulose) (HPC)",103 % of control
same,T/C,"dose: 400.0 mg/kg/injection, schedule: Q04DX003 (ip), vehicle: Klucel (hydroxypropylcellulose) (HPC)",95 % of control
N#CC12CCCC(=O)N1c1ccccc1S2 (centres undefined),T/C,[1],108 % of control
same,T/C,[2],104 % of control
same,T/C,[3],95 % of control
CCC1(C)CCC2(C)C(CCC3C4(C)CCCC32OC4=O)C1 (centres undefined),T/C,"dose: 25.0 mg/kg/injection, schedule: Q01DX005 (ip), vehicle: Klucel (hydroxypropylcellulose) (HPC)",96 % of control
same,T/C,[15],99 % of control
same,T/C,[16],101 % of control and 103 % of control
same,T/C,[17],99 % of control
Cc1ccc(C(O)(CS(C)=O)c2ccco2)cc1 (centres undefined),T/C,[20],100 % of control
same,T/C,[21],100 % of control
same,T/C,"dose: 50.0 mg/kg/injection, schedule: Q01DX009 (ip), vehicle: saline with Tween-80",100 % of control
Cc1c([N+](=O)[O-])oc2c1C(=O)c1ccccc1C2=O,T/C,"dose: 15.0 mg/kg/injection, schedule: Q01DX005 (ip), vehicle: Klucel (hydroxypropylcellulose) (HPC)",95 % of control
same,T/C,"dose: 30.0 mg/kg/injection, schedule: Q01DX005 (ip), vehicle: Klucel (hydroxypropylcellulose) (HPC)",95 % of control
same,T/C,[8],95 % of control and 96 % of control
same,T/C,[9],102 % of control
C=C1CC2(C)CCC(OC(=O)C3(C)OC3C)C(C)(OC(C)=O)C2CC1=C(C)C (centres undefined),T/C,"dose: 150.0 mg/kg/injection, schedule: Q01DX001 (ip), vehicle: Klucel (hydroxypropylcellulose) (HPC)",99 % of control
same,T/C,"dose: 300.0 mg/kg/injection, schedule: Q01DX001 (ip), vehicle: Klucel (hydroxypropylcellulose) (HPC)",98 % of control
Nc1ccccc1SC1=C(Cl)C(=O)c2ccccc2C1=O,T/C,"dose: 6.25 mg/kg/injection, schedule: Q01DX009 (ip), vehicle: saline with Tween-80",95 % of control
same,T/C,[20],94 % of control
same,T/C,[21],103 % of control
N#CC(C#N)=C(C#N)C#N,T/C,[18],103 % of control
same,T/C,[19],103 % of control
CC1(Cc2c(N)[nH]c(=S)[nH]c2=O)OCCO1,T/C,[12],105 % of control
same,T/C,[13],110 % of control
same,T/C,[14],110 % of control
CC1=C(C)C(C)(C)OC1=O,T/C,"dose: 100.0 mg/kg/injection, schedule: Q01DX001 (ip), vehicle: saline with Tween-80",100 % of control
same,T/C,"dose: 200.0 mg/kg/injection, schedule: Q01DX001 (ip), vehicle: saline with Tween-80",100 % of control
same,T/C,"dose: 400.0 mg/kg/injection, schedule: Q01DX001 (ip), vehicle: saline with Tween-80",104 % of control
